Measured values from PubChem BioAssay (NCI).
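Values below derive from 48-hour exposures of cells grown in 96-well plates, with endpoints linearly interpolated between the two concentrations bracketing the appropriate inhibition level. The concentration for full growth arrest is given as TGI.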 Where a SMILES comes first, the peptide text is derived from it. [ ]: non-standard residue; d: D form. The star is where a group is joined. ξ: configuration not given here. ξPhe(4-NO2) = NC(Cc1ccc([N+](=O)[O-])cc1)C(=O)O; Boc = CC(C)(C)OC(=O)*; OBn = c1ccc(CO*)cc1

Columns and labels:
Experiment in all cases: NCI-60 cell line screen, 48 h
[1] = tested on: SNB-75 CNS
[2] = tested on: NCI-H460 lung
[3] = tested on: SK-MEL-5 melanoma
[4] = tested on: DU-145 prostate
[5] = tested on: COLO 205 colon
[6] = tested on: T-47D breast
[7] = tested on: SR leukemia
[8] = tested on: BT-549 breast
[9] = tested on: EKVX NSCLC
[10] = tested on: NCI-H226 lung
[11] = tested on: RXF 393 renal

Row | Structure (SMILES) | TGI [1] [µM] | TGI [2] [µM] | TGI [3] [µM] | TGI [4] [µM] | TGI [5] [µM] | TGI [6] [µM] | TGI [7] [µM] | TGI [8] [µM] | TGI [9] [µM] | TGI [10] [µM] | TGI [11] [µM]
1 | CN1CC2=C(NC(=S)NC2c2ccc(Cl)cc2)/C(=C/c2ccc(Cl)cc2)C1 (stereo not drawn) | 31.2 | 28.1 | 26.8 | 30.5 | 33.3 | 32.3 | 51.5 | 48.6 | 68.8 | – | –
2 | CC(C)C[C@H](NC(=O)CCc1ccccc1)B(O)O | – | 52.9 | 22.8 | > 100 | 75.3 | 43.9 | 9.8 | 57.6 | > 100 | 4.8 | 19.1
3 | C[C@]12CC(c3ccccc3O1)C(C#N)C(=O)N2 (stereo partly drawn) | > 100 | > 100 | > 100 | > 100 | > 100 | > 100 | > 100 | > 100 | > 100 | > 100 | > 100
4 | Nc1nc(Cl)cc(NCC2(CO)CCC2)n1 | > 100 | > 100 | > 100 | > 100 | > 100 | > 100 | > 100 | > 100 | > 100 | > 100 | > 100
5 | COc1ccc(-c2c3c(n(C4OC(CO)C(O)C(O)C4O)c(=S)c2C#N)CC(C)(C)CC3=O)cc1 (stereo not drawn) | > 100 | > 100 | > 100 | > 100 | > 100 | > 100 | > 100 | > 100 | – | > 100 | > 100
6 | Cc1cnc2[nH]c(-c3ccc(F)cc3)cc(=O)c2c1 | 62.8 | > 100 | > 100 | > 100 | > 52.7 | > 100 | > 61.5 | > 100 | > 100 | > 84.5 | > 100
7 | CS(=O)(=O)c1[nH]nc2[nH]c(=O)[nH]c(=O)c12 | > 10 | > 10 | > 10 | > 10 | > 10 | > 10 | > 10 | > 10 | > 10 | > 10 | > 10
8 | CC(C)(C)OC(=O)NC(Cc1ccc([N+](=O)[O-])cc1)C(=O)NCC(=O)OCc1ccccc1 (stereo not drawn) (Boc-[ξPhe(4-NO2)]-Gly-OBn) | 41.5 | 49.4 | 46.2 | 81.8 | 32.3 | > 100 | > 100 | 59.6 | > 100 | 67.8 | 53.1
9 | CC(=O)OCC1OC(n2c3c(c(-c4ccc(Cl)cc4)c(C#N)c2=S)C(=O)CC(C)(C)C3)C(OC(C)=O)C(OC(C)=O)C1OC(C)=O (stereo not drawn) | 44.3 | > 100 | 48.2 | > 100 | > 62.8 | > 27.7 | > 100 | 12.8 | – | > 81 | 68.8
10 | COC(=O)/C(C#N)=C1\NC(=O)CC(c2ccccc2)C1C#N (stereo not drawn) | > 100 | > 100 | > 100 | > 100 | > 100 | > 100 | > 100 | > 100 | > 100 | > 100 | > 100
11 | Cc1cc(S(=O)(=O)Nc2nc(N)nc(N3CCOCC3)n2)c(SCC(=O)O)cc1Cl | > 10 | > 10 | > 10 | > 10 | > 10 | > 10 | > 10 | > 10 | > 10 | > 10 | > 10
12 | Cc1ccc(S(=O)(=O)[N-]C2C(=O)c3ccccc3C(=O)C2[n+]2cccc(C(N)=O)c2)cc1 (stereo not drawn) | > 100 | > 100 | > 100 | > 100 | 59.4 | > 100 | > 100 | > 100 | > 100 | > 100 | > 100
13 | O=c1oc2cc(O)ccc2c(O)c1C(c1ccccn1)c1c(O)c2ccc(O)cc2oc1=O | > 100 | > 100 | > 100 | > 100 | > 100 | > 100 | > 100 | > 100 | > 100 | > 100 | > 100
14 | CCCCCC(=O)OCC(=O)[C@H]1[C@H](C)C[C@H]2[C@@H]3C[C@H](F)C4=C/C(=N/OC(=O)c5cccc6c(=O)c7ccccc7[nH]c56)C=C[C@]4(C)[C@H]3[C@@H](O)C[C@@]21C | 69 | – | 27.8 | > 100 | 72.8 | 62.1 | 93.3 | 66.5 | > 100 | > 100 | –
15 | CN(C)c1ncnc2c1ncn2C1C=CC(COS(N)(=O)=O)C1 (stereo not drawn) | > 100 | > 100 | > 100 | > 100 | > 100 | > 100 | > 100 | > 100 | > 100 | – | > 100
16 | O=c1n(-c2ccccc2)c(=O)n2n1C1CCC2CC1 | > 100 | > 100 | > 100 | > 100 | > 100 | > 100 | > 100 | > 100 | > 100 | > 100 | –
17 | NC(C(F)(F)F)(C(F)(F)F)P(=O)(c1ccccc1)c1ccccc1 | > 100 | > 100 | > 100 | > 100 | > 100 | > 100 | > 100 | > 100 | > 100 | > 100 | > 100
